# Data as given in patent US20100285959A1, “HERBICIDAL MIXTURES” (priority 2006, published 2010).
# Legend:
# galium (GALAP) = experiment: Test 23 growth chamber, postemergence; assay type: in vivo, Galium aparine; conditions: 21 DAA
# Experimental: (§1) A test was conducted to evaluate the effects on winter barley (HORVW, Hordeum vulgare L.), winter wheat (TRZAW, Triticum aestivum L.), and several weed species of mixtures of Compound 2 with the commercial herbicides (2,4-dichlorophenoxy)acetic acid (2,4-D) and (4-chloro-2-methylphenoxy)acetic acid (MCPA), auxin mimics. […] Plants were treated postemergence at the 2-4 leaf growth stage, and each treatment was replicated three times. […] Plants were watered as needed. […] Results are means of the three replicates.
# winter wheat (TRZAW) = experiment: Test 20 growth chamber, postemergence; assay type: in vivo, Triticum aestivum; conditions: 25 DAA
# Experimental: as §1, with “vulgare L.) and” for “vulgare L.),”, “aestivum L.)” for “aestivum L.), and several weed species”, “the 2-leaf” for “the 2-4 leaf”, “replicated a total of four times (three times in the loam/sand blend and one time in RediEarth).” for “replicated three times.”, “are the” for “are”, “the four” for “the three”
# redroot pigweed (AMARE) = experiment: Test 23 growth chamber, postemergence; assay type: in vivo, Amaranthus retroflexus; conditions: 21 DAA
# Experimental: as §1
# Russian thistle (SASKR) = experiment: Test 23 growth chamber, postemergence; assay type: in vivo, Salsola kali; conditions: 21 DAA
# Experimental: as §1
# [1] = tested on: broadleaf buttonweed (BOILF); experiment: Test 12 field trial, preemergence; assay type: in vivo, Borreria latifolia; design: scale not given here; conditions: Cpd 2 or Cpd 1 62 g a.i./ha, Diuron 2000 g a.i./ha
# From the text: (§2) In early-mid spring season, corn seeds (hybrid ‘Pioneer 3041’) were planted 5 cm deep and sugarcane nodes (variety RB-72.454) were planted 10 cm deep in separate plots in a clay soil having 2.6% organic matter and a pH of 5.6. Plots were 24 m long by 1.5 m wide with rows spaced 80 cm (corn) or 140 cm (sugarcane) apart. Corn seeds were spaced 15 cm apart and sugarcane nodes were spaced 10 cm apart within the rows. At the same time, weed seeds were broadcast over the surface of separate plots without a crop, one weed species per plot. The weed plots were rotary tilled to incorporate the weed seeds to a variety of depths. The field was managed using conventional tillage practices.
# common sugarcane (SACOF) = experiment: Test 12 field trial, preemergence; assay type: in vivo, Saccharum officinarum; design: scale not given here; conditions: Cpd 2 or Cpd 1 62 g a.i./ha, Diuron 2000 g a.i./ha
# From the text: as §2
# wild radish (RAPRA) = experiment: Test 7 field trial, preemergence; assay type: in vivo, Raphanus raphanistrum
# Experimental: Plots were 7.6 m long by 3.0 m wide with rows spaced 76 cm apart. Seeds were spaced 15 cm apart within the rows. The field was managed using conventional tillage practices. […] Wild radish was evaluated 14 and 28 days after application. […] Results are the means of the three replicates.
# [2] = tested on: ladysthumb smartweed (POLPE); experiment: Test 14 field trial, preemergence, growth as percent of control; assay type: in vivo, Polygonum persicaria
# From the text: Corn seeds (hybrid ‘Pioneer 31G96 RR’) were planted in mid spring season, 3.8 cm deep in a clay loam soil having 2% organic matter and a pH of 6.6. Plots were 6.1 m long by 3.0 m wide with rows spaced 76 cm apart. Seeds were spaced 15 cm apart within the rows. The field was managed using conventional tillage practices. […] Yellow nutsedge was only evaluated 19 and 28 days after application, and ivyleaf morningglory could only be evaluated 28 days after application. […] Results are the means of the three replicates. This growth inhibition data was converted to results in the form of “plant growth as a percent of control plant growth” using the calculation “100 minus growth inhibition”. […] For “growth as a percent of control” data, Colby's Equation calculates the expected additive effect of herbicidal mixtures having two active ingredients as follows:
# Ga+b=GaGb/100 • wherein Ga+b is the growth as a percent of control of plants treated with the mixture expected from additive contribution of the individual components, • Ga is the observed growth as a percent of control of plants treated with the first active ingredient at the same use rate as in the mixture, and • Gb is the observed growth as a percent of control of plants treated with the second active ingredient at the same use rate as in the mixture. For mixtures having three active ingredients, Colby's Equation to calculate the expected additive effect of herbicidal mixtures is as follows:
# Ga+b+c=GaGbGc/10,000 • wherein Ga and Gb are as defined above and • Ga+b+c is the growth as a percent of control of plants treated with the mixture expected from additive contribution of the individual components, and • Gc is the observed growth as a percent of control of plants treated with the third active ingredient at the same use rate as in the mixture. When these two forms of Colby's Equation are used, if the observed effects on weeds are less than the expected values, the mixture is synergistic.
# [3] = tested on: smallflower buttercup (RANAB); experiment: Test 9 field trial, emerged weeds before corn planting; assay type: in vivo, Ranunculus abortivus; conditions: g a.i./ha: Cpd 2 100, Glyphosate 1540, Paraquat 1150
# Experimental: (§3) Corn seeds (hybrid ‘Pioneer 34M91 RR’) were planted in mid spring season, about 3.8 cm deep in a silty clay loam soil having a pH of 6.7. Plots were 9.1 m long by 3.0 m. The field was managed using no-till practices. […] Compound 2 and paraquat treatments, alone and in combination, also included a surfactant. Glyphosate, alone and with Compound 2, included ammonium sulfate in the treatment mixture. […] The effects on the weeds in the treated plots and untreated control plots were recorded 7, 14, 23, 30 and 57 days after application. Most of the weed species could not be evaluated at every timing. Corn response was only evaluated 57 days after application. […] Results are the means of the three replicates.
# Canada horseweed (ERICA) = experiment: as above; assay type: in vivo, Erigeron canadensis; conditions: g a.i./ha: Cpd 2 100, Glyphosate 1540, Paraquat 1150
# Experimental: as §3
# [4] = 2,4-D or MCPA alone 250 g a.i./ha
smiles,measurement,setting,value
"O=C(O)COc1ccc(Cl)cc1Cl [2,4-D, (2,4-dichlorophenoxy)acetic acid]",Postemergence GALAP Obs,galium (GALAP); [4],33
same,Postemergence TRZAW Obs,winter wheat (TRZAW); [4],18
same,Postemergence AMARE Obs,redroot pigweed (AMARE); [4],67
same,Postemergence SASKR Obs,Russian thistle (SASKR); [4],63
"Nc1nc(C2CC2)nc(C(=O)O)c1Cl [Compound 1, 6-amino-5-chloro-2-cyclopropyl-4-pyrimidinecarboxylic acid]",BOILF Obs,[1]; 15 DAA,70
same,BOILF Obs,[1]; 29 DAA,60
same,BOILF Obs,[1]; 48 DAA,95
same,BOILF Obs,[1]; 61 DAA,95
same,SACOF Obs,common sugarcane (SACOF); 15 DAA,0
same,SACOF Obs,common sugarcane (SACOF); 29 DAA,0
same,SACOF Obs,common sugarcane (SACOF); 48 DAA,0
same,SACOF Obs,common sugarcane (SACOF); 61 DAA,5
"COC(=O)c1nc(C2CC2)nc(N)c1Cl [Compound 2, methyl 6-amino-5-chloro-2-cyclopropyl-4-pyrimidinecarboxylate]",Postemergence GALAP Obs,galium (GALAP); Cpd 2 alone 4 g a.i./ha,60
same,Postemergence GALAP Obs,galium (GALAP); Cpd 2 alone 8 g a.i./ha,72
same,Postemergence GALAP Obs,galium (GALAP); Cpd 2 alone 16 g a.i./ha,80
same,RAPRA Obs,"wild radish (RAPRA); 14 DAA, 125 g a.i./ha",35%
same,RAPRA Obs,"wild radish (RAPRA); 14 DAA, 250 g a.i./ha",53%
same,RAPRA Obs,"wild radish (RAPRA); 14 DAA, 500 g a.i./ha",73%
same,RAPRA Obs,"wild radish (RAPRA); 28 DAA, 250 g a.i./ha",38%
same,RAPRA Obs,"wild radish (RAPRA); 28 DAA, 500 g a.i./ha",58%
same,Obs growth % of control,"[2]; 19 DAA, 75 g a.i./ha",88%
same,Obs growth % of control,"[2]; 19 DAA, 100 g a.i./ha",77%
same,Obs growth % of control,"[2]; 28 DAA, 75 g a.i./ha",45%
same,Obs growth % of control,"[2]; 28 DAA, 100 g a.i./ha",58%
same,Obs growth % of control,"[2]; 56 DAA, 75 g a.i./ha",75%
same,Obs growth % of control,"[2]; 56 DAA, 100 g a.i./ha",80%
same,BOILF Obs,[1]; 15 DAA,70
same,BOILF Obs,[1]; 29 DAA,60
same,BOILF Obs,[1]; 48 DAA,95
same,BOILF Obs,[1]; 61 DAA,100
same,SACOF Obs,common sugarcane (SACOF); 15 DAA,0
same,SACOF Obs,common sugarcane (SACOF); 29 DAA,0
same,SACOF Obs,common sugarcane (SACOF); 48 DAA,0
same,SACOF Obs,common sugarcane (SACOF); 61 DAA,5
same,Postemergence TRZAW Obs,winter wheat (TRZAW); Cpd 2 alone 4 g a.i./ha,23
same,Postemergence TRZAW Obs,winter wheat (TRZAW); Cpd 2 alone 8 g a.i./ha,28
same,Postemergence TRZAW Obs,winter wheat (TRZAW); Cpd 2 alone 16 g a.i./ha,35
same,RANAB Obs,[3]; 7 DAA,45%
same,RANAB Obs,[3]; 14 DAA,40%
same,RANAB Obs,[3]; 23 DAA,60%
same,RANAB Obs,[3]; 30 DAA,65%
same,ERICA Obs,Canada horseweed (ERICA); 7 DAA,62%
same,ERICA Obs,Canada horseweed (ERICA); 14 DAA,68%
same,ERICA Obs,Canada horseweed (ERICA); 23 DAA,75%
same,ERICA Obs,Canada horseweed (ERICA); 30 DAA,83%
same,ERICA Obs,Canada horseweed (ERICA); 57 DAA,100%
same,Postemergence AMARE Obs,redroot pigweed (AMARE); Cpd 2 alone 4 g a.i./ha,43
same,Postemergence AMARE Obs,redroot pigweed (AMARE); Cpd 2 alone 8 g a.i./ha,62
same,Postemergence AMARE Obs,redroot pigweed (AMARE); Cpd 2 alone 16 g a.i./ha,68
same,Postemergence SASKR Obs,Russian thistle (SASKR); Cpd 2 alone 4 g a.i./ha,55
same,Postemergence SASKR Obs,Russian thistle (SASKR); Cpd 2 alone 8 g a.i./ha,63
same,Postemergence SASKR Obs,Russian thistle (SASKR); Cpd 2 alone 16 g a.i./ha,72
O=C(O)CNCP(=O)(O)O [Glyphosate],RANAB Obs,[3]; 7 DAA,50%
same,RANAB Obs,[3]; 14 DAA,80%
same,RANAB Obs,[3]; 23 DAA,95%
same,RANAB Obs,[3]; 30 DAA,100%
same,ERICA Obs,Canada horseweed (ERICA); 7 DAA,45%
same,ERICA Obs,Canada horseweed (ERICA); 14 DAA,76%
same,ERICA Obs,Canada horseweed (ERICA); 23 DAA,98%
same,ERICA Obs,Canada horseweed (ERICA); 30 DAA,100%
same,ERICA Obs,Canada horseweed (ERICA); 57 DAA,84%
"CCc1cccc(C)c1N(C(=O)CCl)[C@@H](C)COC [S-Metolachlor, S-metolachlor, reference compound]",RAPRA Obs,"wild radish (RAPRA); 14 DAA, 1000 g a.i./ha",40%
same,RAPRA Obs,"wild radish (RAPRA); 28 DAA, 1000 g a.i./ha",15%
same,Obs growth % of control,"[2]; 19 DAA, 1870 g a.i./ha",100%
same,Obs growth % of control,"[2]; 28 DAA, 1870 g a.i./ha",53%
